According to patent publication US11760755B2, “Hepatitis B antiviral agents” (priority 2019, dated 2023):
Read-outs that look alike come from different tables or passages of the source.

How the values were obtained:
HBV = assay: HepAD38 antiviral assay: reduction of viral product accumulation (virion DNA by qPCR, HBsAg/HBeAg by ELISA); format: cell-based, hepatitis B virus
Description: Methods: HepAD38 cells are maintained as previously reported (Ladner et al, Antimicrob. Agents Chemother. 1997, […], 1715). Briefly, cells are passaged upon attaining confluency in DMEM/F12 media in the presence of 10% FBS, Penn/Strep, 250 μg/mL G418, and 1 μg/ml tetracycline. Novel compounds are screened by first washing cells three times with PBS to remove tetracycline, and plating in 96 well plates at 35,000 cells/well. Compounds dissolved in DMSO are then diluted 1:200 into wells containing cells. Five days after compound addition, material is harvested for analysis. For an extended 8 day analysis, cells are plated and treated as described above, but media and compound are refreshed on d2 and d5 post initial treatment.
On harvest day, virion DNA is obtained by lysing with Sidestep Lysis and Stabilization Buffer and then quantified via quantitative real time PCR. Commercially available ELISA kits are used to quantitate the viral proteins HBsAg (Alpco) or HbeAg (US Biological) by following the manufacturer's recommended protocol after diluting samples to match the linear range of their respective assays. Irrespective of readout, compound concentrations that reduce viral product accumulation in the cell lysates or supernatants by 50% relative to no drug controls (EC50) are reported; EC50 ranges are as follows: A<0.1 μM; B 0.1-1 μM; C>1 μM.

[1] = Compound toxicity, ATPLite total ATP levels; format: cell-based; conditions: human
Description: (§1) Compound toxicity is evaluated by seeding cells at 15,000 cells/well and treating with compound as described above.

HepG2 = assay: Compound toxicity, ATPLite total ATP levels; format: cell-based; conditions: human, 3 days
Description: as §1

[2] = Hepatitis B virus, HePAD38, read-out: HepAD38 EC50 (μM)
[3] = HepG2 cells, HepG2, three days after compound addition, 50% reduction of total ATP levels (ATPLite), read-out: HepG2 CC50
[4] = Hepatitis B virus, HepAD38 cells, 50% reduction of viral product accumulation relative to no drug controls, class symbols, read-out: HepAD38 EC50
[5] = read-out: HepAD38 EC50, HepAD38 cells, 50% reduction of viral product accumulation relative to no drug controls, class symbols
[6] = Hepatitis B virus, HepAD38 cells, 50% reduction of viral product accumulation relative to no drug controls, numeric bound, read-out: HepAD38 EC50

O=S(=O)(C[C@H]1CC2=C(c3ccn(C(F)F)n3)[C@H](c3ccc(F)cc3Cl)N=C(c3nccs3)N2C1)N1C2CC[C@H]1C[C@@](O)(c1ccccn1)C2 [Example 38]
EC50 (HBV; [2]): 0.1 to 1 µM

O=S(=O)(N[C@H]1CC2=C(c3ccn(C(F)F)n3)[C@H](c3ccc(F)cc3Cl)N=C(c3nccs3)N2C1)[C@H]1C2CC[C@H]1C[C@@](O)(CO)C2 [Example 35]
CC50 at 3 days [1, 3]: > 25 µM
EC50 (HBV; [4]): < 0.1 µM

O=S(=O)(N[C@H]1CC2=C(c3ccn(C(F)F)n3)[C@H](c3ccc(F)cc3Cl)N=C(c3nccs3)N2C1)[C@H]1CC2CCC(C1)[C@H]2O [Example 17]
CC50 at 3 days [1, 3]: 10 to 25 µM
EC50 (HBV; [4]): < 0.1 µM

O=S(=O)(N[C@H]1CC2=C(c3ccn(C(F)F)n3)[C@H](c3ccc(F)cc3Cl)N=C(c3nccs3)N2C1)[C@H]1C2CC[C@H]1C[C@@](O)(c1ccccn1)C2 [Example 34]
EC50 (HBV; [4]): < 0.1 µM

O=S(=O)(N[C@H]1CC2=C(c3ccn(C(F)F)n3)[C@H](c3ccc(F)cc3Cl)N=C(c3nccs3)N2C1)N1C2CCC1CC(O)(Cn1ccnc1)C2 (stereo partly shown) [Example 30]
EC50 (HBV; [2]): < 0.1 µM

O=S(=O)(NC1CC2CCC(C1)C2O)N[C@H]1CC2=C(c3ccn(C(F)F)n3)[C@H](c3ccc(F)cc3Cl)N=C(c3nccs3)N2C1 (stereo partly shown) [Example 12]
EC50 (HBV; [4]): 0.1 to 1 µM

O=C1CC2CCC(C1)N2S(=O)(=O)N[C@H]1CC2=C(c3ccn(C(F)F)n3)[C@H](c3ccc(F)cc3Cl)N=C(c3nccs3)N2C1 [Example 9]
CC50 at 3 days ([1]; HepG2 CC50 (μM)): > 25 µM
EC50 (HBV; [2]): < 0.1 µM

O=C1CC2CC[C@@H](C1)[C@H]2S(=O)(=O)N[C@H]1CC2=C(c3ccn(C(F)F)n3)[C@H](c3ccc(F)cc3Cl)N=C(c3nccs3)N2C1 [Example 33]
CC50 at 3 days [1, 3]: > 25 µM
EC50 (HBV; [4]): < 0.1 µM

O=C(N[C@H]1CC2=C(c3ccn(C(F)F)n3)[C@H](c3ccc(F)cc3Cl)N=C(c3nccs3)N2C1)N1C[C@H]2CC[C@@H](C1)[C@@H]2O [Example 6]
EC50 (HBV; [4]): 0.1 to 1 µM

O=C(N[C@H]1CC2=C(c3ccn(C(F)F)n3)[C@H](c3ccc(F)cc3Cl)N=C(c3nccs3)N2C1)N1C[C@H]2CC[C@@H](C1)[C@H]2O [Example 7]
EC50 (HBV; [4]): 0.1 to 1 µM

O=S(=O)(N[C@H]1CC2=C(c3ccn(C(F)F)n3)[C@H](c3ccc(F)cc3Cl)N=C(c3nccs3)N2C1)[C@@H]1CC2CC[C@@H](C1)[C@@]2(O)c1cn(-c2ccccn2)nn1 [Example 28]
EC50 (HBV; [4]): < 0.1 µM

O=S(=O)(N[C@H]1CC2=C(c3ccn(C(F)F)n3)[C@H](c3ccc(F)cc3Cl)N=C(c3nccs3)N2C1)N1C2CC[C@H]1C[C@](O)(c1cn(-c3ccccn3)nn1)C2 [Example 31]
EC50 (HBV; [2]): < 0.1 µM

C#C[C@]1(O)C2CCC1C[C@@H](S(=O)(=O)N[C@H]1CC3=C(c4ccn(C(F)F)n4)[C@H](c4ccc(F)cc4Cl)N=C(c4nccs4)N3C1)C2 [Example 26]
EC50 (HBV; [4]): < 0.1 µM

O=S(=O)(N[C@H]1CC2=C(c3ccn(C(F)F)n3)[C@H](c3ccc(F)cc3Cl)N=C(c3nccs3)N2C1)N1C2CCC1CC(O)(c1nccs1)C2 (stereo partly shown) [Example 23]
CC50 at 3 days ([1]; HepG2 CC50 (μM)): > 25 µM
EC50 (HBV; [5]): < 0.1 µM

C[C@]1(O)C2CCC1C[C@@H](S(=O)(=O)N[C@H]1CC3=C(c4ccn(C(F)F)n4)[C@H](c4ccc(F)cc4Cl)N=C(c4nccs4)N3C1)C2 [Example 25]
EC50 (HBV; [4]): < 0.1 µM

O=C1NCC2(CC3CCC(C2)N3S(=O)(=O)N[C@H]2CC3=C(c4ccn(C(F)F)n4)[C@H](c4ccc(F)cc4Cl)N=C(c4nccs4)N3C2)O1 (stereo partly shown) [Example 21]
CC50 at 3 days ([1]; HepG2 CC50 (μM)): > 25 µM
EC50 (HBV; [2]): < 0.1 µM

O=S(=O)(C[C@H]1CC2=C(c3ccn(C(F)F)n3)[C@H](c3ccc(F)cc3Cl)N=C(c3nccs3)N2C1)N1CC2CC[C@@H](C1)[C@]2(O)c1ccccn1 [Example 37]
EC50 (HBV; [4]): < 0.1 µM

O=C(N[C@H]1CC2=C(c3ccn(C(F)F)n3)[C@H](c3ccc(F)cc3Cl)N=C(c3nccs3)N2C1)N1[C@@H]2CC[C@H]1C[C@H](O)C2 [Example 8]
EC50 (HBV; [2]): 0.1 to 1 µM

O=S(=O)(N[C@H]1CC2=C(c3ccn(C(F)F)n3)[C@H](c3ccc(F)cc3Cl)N=C(c3nccs3)N2C1)N1C2CCC1CC(O)C2 (single isomer, unassigned) [Example 3]
CC50 (HepG2): > 25000 nM
EC50 (HBV; [5]): < 0.1 µM

CN([C@H]1CC2=C(c3ccn(C(F)F)n3)[C@H](c3ccc(F)cc3Cl)N=C(c3nccs3)N2C1)S(=O)(=O)N1C2CC[C@H]1C[C@@](O)(c1nccs1)C2 [Example 36]
CC50 at 3 days ([1]; HepG2 CC50 (μM)): > 25 µM
EC50 (HBV; [2]): < 0.1 µM

CC(C)(C)OC(=O)N1C2CCC1CC(NS(=O)(=O)N[C@H]1CC3=C(c4ccn(C(F)F)n4)[C@H](c4ccc(F)cc4Cl)N=C(c4nccs4)N3C1)C2 (stereo partly shown) [Example 11]
EC50 (HBV; [2]): 0.1 to 1 µM

O=S(=O)(N[C@H]1CC2=C(c3ccn(C(F)F)n3)[C@H](c3ccc(F)cc3Cl)N=C(c3nccs3)N2C1)N1CC2CCC(C1)C2O (stereo partly shown) [Example 15]
EC50 (HBV; [4]): < 0.1 µM

O=S(=O)(N[C@H]1CC2=C(c3ccn(C(F)F)n3)[C@H](c3ccc(F)cc3Cl)N=C(c3nccs3)N2C1)N1CC2CCC(C1)O2 [Example 2]
EC50 (HBV; [4]): < 0.1 µM

O=C(N[C@H]1CC2=C(c3ccn(C(F)F)n3)[C@H](c3ccc(F)cc3Cl)N=C(c3nccs3)N2C1)N1CC2CCC(C1)O2 [Example 4]
EC50 (HBV; [6]): > 0.4 µM

O=S(=O)(N[C@H]1CC2=C(c3ccn(C(F)F)n3)[C@H](c3ccc(F)cc3Cl)N=C(c3nccs3)N2C1)N1C2CCC1CC(O)C2 (single isomer, unassigned) [Example 1]
CC50 (HepG2): 10000 to 25000 nM
EC50 (HBV; [2]): < 0.1 µM

C#CC1(O)CC2CCC(C1)N2S(=O)(=O)N[C@H]1CC2=C(c3ccn(C(F)F)n3)[C@H](c3ccc(F)cc3Cl)N=C(c3nccs3)N2C1 (stereo partly shown) [Example 22]
EC50 (HBV; [2]): < 0.1 µM

O=S(=O)(N[C@H]1CC2=C(c3ccn(C(F)F)n3)[C@H](c3ccc(F)cc3Cl)N=C(c3nccs3)N2C1)N1C2CCC1CC(O)(c1ccccn1)C2 (stereo partly shown) [Example 19]
EC50 (HBV; [2]): < 0.1 µM

O=S(=O)(N[C@H]1CC2=C(c3ccn(C(F)F)n3)[C@H](c3ccc(F)cc3Cl)N=C(c3nccs3)N2C1)[C@H]1CC2CCC(C1)[C@]2(O)CO [Example 27]
CC50 at 3 days [1, 3]: > 25 µM
EC50 (HBV; [4]): < 0.1 µM

O=S(=O)(N[C@H]1CC2=C(c3ccn(C(F)F)n3)[C@H](c3ccc(F)cc3Cl)N=C(c3nccs3)N2C1)N1C2CCC1CC(O)(c1cn(-c3ccccn3)nn1)C2 (stereo partly shown) [Example 24]
CC50 at 3 days ([1]; HepG2 CC50 (μM)): > 25 µM
EC50 (HBV; [2]): < 0.1 µM

O=S(=O)(N[C@H]1CC2=C(c3ccn(C(F)F)n3)[C@H](c3ccc(F)cc3Cl)N=C(c3nccs3)N2C1)N1C2CC[C@H]1C=C(c1cn(-c3ccccn3)nn1)C2 [Example 32]
CC50 at 3 days ([1]; HepG2 CC50 (μM)): > 25 µM
EC50 (HBV; [2]): < 0.1 µM

O=S(=O)(N[C@H]1CC2=C(c3ccn(C(F)F)n3)[C@H](c3ccc(F)cc3Cl)N=C(c3nccs3)N2C1)N1C2CCC1CC(F)(F)C2 [Example 10]
EC50 (HBV; [2]): < 0.1 µM

O=C1C2CCC1CC(S(=O)(=O)N[C@H]1CC3=C(c4ccn(C(F)F)n4)[C@H](c4ccc(F)cc4Cl)N=C(c4nccs4)N3C1)C2 (stereo partly shown) [Example 16]
EC50 (HBV; [4]): 0.1 to 1 µM

O=S(=O)(N[C@H]1CC2=C(c3ccn(C(F)F)n3)[C@H](c3ccc(F)cc3Cl)N=C(c3nccs3)N2C1)N1CC2CCC(C1)C2(O)c1ccccn1 (stereo partly shown) [Example 14]
EC50 (HBV; [4]): < 0.1 µM

O=S(=O)(N[C@H]1CC2=C(c3ccn(C(F)F)n3)[C@H](c3ccc(F)cc3Cl)N=C(c3nccs3)N2C1)[C@H]1CC2CCC(C1)[C@]2(O)c1ccccn1 [Example 18]
CC50 at 3 days [1, 3]: 10 to 25 µM
EC50 (HBV; [4]): < 0.1 µM

O=C(N[C@H]1CC2=C(c3ccn(C(F)F)n3)[C@H](c3ccc(F)cc3Cl)N=C(c3nccs3)N2C1)N1[C@@H]2CC[C@H]1C[C@@H](O)C2 [Example 5]
EC50 (HBV; [6]): > 0.4 µM

O=S(=O)(N[C@H]1CC2=C(c3ccn(C(F)F)n3)[C@H](c3ccc(F)cc3Cl)N=C(c3nccs3)N2C1)N1C2CCC1CC(O)(c1nccs1)C2 (stereo partly shown) [Example 20]
EC50 (HBV; [2]): < 0.1 µM
